Patent publication US8691534B2, “Preparation of romidepsin” (Celgene Corporation, priority 2006, dated 2014)

Test: pH-dependent stability of romidepsin in solution during production, purification and storage
Type: physicochemical
Description: Based on this recognition, the present invention provides a system for reproducibly preparing romidepsin under conditions that reduce the levels of these contaminating side products. […] This improvement in the purification process of romidepsin allows for higher yields of romidepsin and/or higher purity romidepsin than that provided by known processes. Such an improvement is particularly useful for preparing pharmaceutical grade romidepsin for use in humans.
Romidepsin is a cyclic depsipeptide having a disulfide bond. […] Such adducts are typically insoluble and difficult to remove from purified romidepsin. In certain embodiments, such contaminating adducts prevent a preparation of romidepsin from meeting the desired specifications (e.g., solubility, degree of purity, optical rotation, etc.). In pharmaceutical compositions, these adducts decrease the purity of the active agent, romidepsin. Since romidepsin is being used as a pharmaceutical agent in humans, it is important that pure, stable, monomeric romidepsin be reproducibly obtained from a fermentation of Chromobacterium violaceum. The present invention stems from the recognition that alkaline conditions cause the formation of these undesired romidepsin adducts and provides a novel solution to this problem.

Compound: C/C=C1\NC(=O)[C@H]2CSSCC/C=C/[C@H](CC(=O)N[C@H](C(C)C)C(=O)N2)OC(=O)[C@H](C(C)C)NC1=O [Romidepsin, (1S,4S,10S,16E,21R)-7-[(2Z)-ethylidene]-4,21-diisopropyl-2-oxa-12,13-dithia-5,8,20,23-tetraazabicyclo[8.7.6]tricos-16-ene-3,6,9,19,22-pentanone]
- reduction of the disulfide bond (basic conditions, e.g. greater than an apparent pH of ~7): facilitates the reduction of this disulfide bond
- formation of dimerized, oligomerized, or polymerized romidepsin (producing, purifying and/or storing at an apparent pH less than approximately 6.5, more preferably less than approximately 6.0): prevent the formation of dimerized, oligomerized, or polymerized romidepsin
